This passage reports Kd results from ChEMBL document CHEMBL3991601, “The target landscape of clinical kinase drugs” (Science, 2017).

As usually defined, the Kd is a measure of binding affinity in units of concentration.

Assay [1] addresses T1, Serine/threonine-protein kinase ICK (Homo sapiens, UniProt Q9UPZ9).
T1 sequence (Q9UPZ9 whole entry): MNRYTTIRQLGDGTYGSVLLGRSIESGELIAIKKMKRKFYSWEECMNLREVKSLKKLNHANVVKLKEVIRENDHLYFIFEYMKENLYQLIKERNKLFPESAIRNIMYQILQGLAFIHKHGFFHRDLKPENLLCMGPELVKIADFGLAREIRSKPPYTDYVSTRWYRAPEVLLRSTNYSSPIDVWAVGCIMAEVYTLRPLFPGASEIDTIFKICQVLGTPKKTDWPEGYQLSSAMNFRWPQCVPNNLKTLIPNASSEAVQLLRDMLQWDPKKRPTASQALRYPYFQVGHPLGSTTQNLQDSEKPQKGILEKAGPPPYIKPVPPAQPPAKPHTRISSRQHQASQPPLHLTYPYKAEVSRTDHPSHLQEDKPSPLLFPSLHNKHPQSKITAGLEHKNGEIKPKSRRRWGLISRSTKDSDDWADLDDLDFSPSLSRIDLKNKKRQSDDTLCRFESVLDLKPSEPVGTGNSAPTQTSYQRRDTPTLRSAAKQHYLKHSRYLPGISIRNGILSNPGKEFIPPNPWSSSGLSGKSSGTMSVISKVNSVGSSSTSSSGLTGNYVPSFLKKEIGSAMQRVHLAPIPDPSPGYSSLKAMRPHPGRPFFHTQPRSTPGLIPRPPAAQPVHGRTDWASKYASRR

Assay [2] addresses T2, Serine/threonine-protein kinase Nek1 (Homo sapiens, UniProt Q96PY6).
T2 sequence (Q96PY6 whole entry): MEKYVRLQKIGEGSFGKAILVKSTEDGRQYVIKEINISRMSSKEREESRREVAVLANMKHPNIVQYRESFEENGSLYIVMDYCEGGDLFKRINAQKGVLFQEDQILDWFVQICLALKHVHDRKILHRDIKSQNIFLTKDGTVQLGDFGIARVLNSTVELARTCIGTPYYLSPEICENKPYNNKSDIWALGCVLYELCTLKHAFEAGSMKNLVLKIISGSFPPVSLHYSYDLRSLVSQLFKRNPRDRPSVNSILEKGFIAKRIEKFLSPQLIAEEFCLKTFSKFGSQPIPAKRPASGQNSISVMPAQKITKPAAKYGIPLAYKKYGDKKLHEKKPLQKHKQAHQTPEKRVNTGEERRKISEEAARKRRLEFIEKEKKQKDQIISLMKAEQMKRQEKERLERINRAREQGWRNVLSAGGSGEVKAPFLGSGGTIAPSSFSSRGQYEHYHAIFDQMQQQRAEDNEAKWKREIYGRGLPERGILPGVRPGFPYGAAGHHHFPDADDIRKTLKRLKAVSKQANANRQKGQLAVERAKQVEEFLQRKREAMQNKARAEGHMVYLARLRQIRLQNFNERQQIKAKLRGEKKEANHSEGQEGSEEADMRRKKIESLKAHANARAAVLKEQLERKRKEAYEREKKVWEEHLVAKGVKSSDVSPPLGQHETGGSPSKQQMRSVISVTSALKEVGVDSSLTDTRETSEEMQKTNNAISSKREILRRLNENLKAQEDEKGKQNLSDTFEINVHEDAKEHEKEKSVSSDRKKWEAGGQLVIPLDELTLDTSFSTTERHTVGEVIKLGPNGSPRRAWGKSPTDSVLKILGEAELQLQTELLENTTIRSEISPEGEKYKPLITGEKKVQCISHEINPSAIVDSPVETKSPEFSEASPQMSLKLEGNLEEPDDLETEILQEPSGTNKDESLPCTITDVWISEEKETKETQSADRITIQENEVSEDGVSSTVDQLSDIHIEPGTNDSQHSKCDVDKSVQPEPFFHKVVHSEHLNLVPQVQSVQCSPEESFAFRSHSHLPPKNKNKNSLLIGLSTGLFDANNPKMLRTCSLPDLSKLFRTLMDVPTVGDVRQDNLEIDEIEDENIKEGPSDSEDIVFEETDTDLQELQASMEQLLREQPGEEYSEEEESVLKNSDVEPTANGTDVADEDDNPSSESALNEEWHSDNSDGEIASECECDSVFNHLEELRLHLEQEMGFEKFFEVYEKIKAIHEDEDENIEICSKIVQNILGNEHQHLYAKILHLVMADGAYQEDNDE

The target of assay [3] is T3, Serine/threonine-protein kinase D3 (Homo sapiens, UniProt O94806).
T3 sequence (O94806 whole entry): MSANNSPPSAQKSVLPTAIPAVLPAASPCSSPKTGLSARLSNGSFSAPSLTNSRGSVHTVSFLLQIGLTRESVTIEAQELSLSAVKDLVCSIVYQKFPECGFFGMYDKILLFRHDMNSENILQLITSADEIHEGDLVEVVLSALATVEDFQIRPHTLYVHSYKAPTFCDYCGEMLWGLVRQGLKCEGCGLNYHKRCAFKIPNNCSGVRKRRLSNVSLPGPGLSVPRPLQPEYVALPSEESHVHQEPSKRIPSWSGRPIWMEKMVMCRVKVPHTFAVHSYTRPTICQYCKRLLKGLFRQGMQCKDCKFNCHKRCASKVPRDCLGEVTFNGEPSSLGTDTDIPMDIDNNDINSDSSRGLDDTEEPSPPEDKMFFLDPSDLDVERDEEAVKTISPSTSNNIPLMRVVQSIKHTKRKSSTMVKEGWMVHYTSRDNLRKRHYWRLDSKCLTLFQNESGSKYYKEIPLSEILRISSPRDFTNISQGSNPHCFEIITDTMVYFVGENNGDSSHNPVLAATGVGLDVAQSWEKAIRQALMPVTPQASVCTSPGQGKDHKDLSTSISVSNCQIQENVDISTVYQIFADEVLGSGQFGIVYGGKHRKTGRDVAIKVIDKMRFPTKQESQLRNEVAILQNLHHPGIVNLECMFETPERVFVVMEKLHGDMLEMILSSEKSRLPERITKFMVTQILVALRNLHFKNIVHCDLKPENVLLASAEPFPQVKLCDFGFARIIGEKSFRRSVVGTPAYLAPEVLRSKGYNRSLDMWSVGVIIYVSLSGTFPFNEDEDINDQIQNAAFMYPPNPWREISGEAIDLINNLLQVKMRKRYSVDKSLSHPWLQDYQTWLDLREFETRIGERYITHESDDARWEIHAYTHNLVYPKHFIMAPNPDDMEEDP

A further assay deals with T4, ADP/ATP translocase 3 (Homo sapiens, UniProt P12236).
T4 sequence (P12236 whole entry): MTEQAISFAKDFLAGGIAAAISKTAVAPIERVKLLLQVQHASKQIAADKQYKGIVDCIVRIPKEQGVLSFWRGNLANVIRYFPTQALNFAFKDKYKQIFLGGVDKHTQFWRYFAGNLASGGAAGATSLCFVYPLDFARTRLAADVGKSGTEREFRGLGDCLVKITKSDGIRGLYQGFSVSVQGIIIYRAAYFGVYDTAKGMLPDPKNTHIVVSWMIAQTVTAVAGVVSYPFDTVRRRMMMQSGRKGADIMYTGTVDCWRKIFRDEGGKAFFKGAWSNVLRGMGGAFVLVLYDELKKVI

Active and inactive are the calls of the source. A value given as a limit tells only on which side of the number the result lay.
Note: in the data inactive means no Kd found up to 30 µM.

For `COc1cc(N2CCC(N3CCN(C)CC3)CC2)ccc1Nc1ncnc(Nc2ccccc2S(=O)(=O)C(C)C)n1` [ASP-3026], the Kd (in assay [1]; in assay [2]; in assay [3]; at ADP/ATP translocase 3) was > 30 µM (inactive) throughout.

Take `Cc1cc([C@@H](C)Nc2ccccc2C(=O)O)c2nc(N3CCOCC3)cc(=O)n2c1` [AZD-6482]: the Kd (in assay [1]; in assay [2]; in assay [3]; on ADP/ATP translocase 3) was > 30 µM (inactive) in each case.

In the case of `CN1CCC(CNc2ccc3ncc(-c4cccc(OC(F)(F)F)c4)n3n2)CC1` [SGI-1776], the Kd (in assay [1]; in assay [2]; in assay [3]; at ADP/ATP translocase 3) was > 30 µM (inactive) throughout.

As for `CC(C)Nc1cc(-c2c[nH]c(C(=O)N[C@H](CO)c3cccc(Cl)c3)c2)c(Cl)cn1` [ULIXERTINIB], the Kd (in assay [1]; in assay [2]; in assay [3]; at ADP/ATP translocase 3) was > 30 µM (inactive) each time.

For `O=c1sn(-c2cccc3ccccc23)c(=O)n1Cc1ccccc1` [TIDEGLUSIB], the Kd (in assay [1]; in assay [2]; in assay [3]; on ADP/ATP translocase 3) was > 30 µM (inactive) each time.

For `CNC(=O)c1cc(Oc2ccc(NC(=O)Nc3ccc(Cl)c(C(F)(F)F)c3)c(F)c2)ccn1` [REGORAFENIB], the Kd (in assay [1]; in assay [2]; in assay [3]; on ADP/ATP translocase 3) was > 30 µM (inactive) in each case.

Take `Cc1ccc(-n2nc(C(C)(C)C)cc2NC(=O)NCc2cc(F)ccc2Oc2ccc3c(cnn3CCO)c2)cc1` [PEXMETINIB]: the Kd (in assay [1]; in assay [2]; in assay [3]; at ADP/ATP translocase 3) was > 30 µM (inactive) in each case.

As to `CCN1CCN(Cc2ccc(-c3cc4c(N[C@H](C)c5ccccc5)ncnc4[nH]3)cc2)CC1` [AEE-788], the Kd (in assay [1]; in assay [2]; in assay [3]; on ADP/ATP translocase 3) was > 30 µM (inactive) each time.

As for `Cc1ccc(NC(=O)c2ccc(CN3CC[C@H](N(C)C)C3)c(C(F)(F)F)c2)cc1Nc1nccc(-c2cncnc2)n1` [BAFETINIB], the Kd (in assay [1]; in assay [2]; in assay [3]; at ADP/ATP translocase 3) was > 30 µM (inactive) each time.

For the molecule `CN(C)C(=O)c1cc2cnc(Nc3ccc(N4CCNCC4)cn3)nc2n1C1CCCC1` [RIBOCICLIB], the Kd (in assay [1]; in assay [2]; in assay [3]; at ADP/ATP translocase 3) was > 30 µM (inactive) in each case.

Turning to `COCCNCc1ccc(-c2cc3nccc(Oc4ccc(NC(=S)NC(=O)Cc5ccc(F)cc5)cc4F)c3s2)nc1` [GLESATINIB], the Kd (in assay [1]; in assay [2]; in assay [3]; on ADP/ATP translocase 3) was > 30 µM (inactive) throughout.

In the case of `Cn1cc(-c2ccc3nnc(C(F)(F)c4ccc5ncccc5c4)n3n2)cn1` [JNJ-38877605], the Kd (in assay [1]; in assay [2]; in assay [3]; at ADP/ATP translocase 3) was > 30 µM (inactive) throughout.

Turning to `CC[C@H](Nc1ncnc2[nH]cnc12)c1nc2cccc(F)c2c(=O)n1-c1ccccc1` [IDELALISIB], the Kd (in assay [1]; in assay [2]; in assay [3]; on ADP/ATP translocase 3) was > 30 µM (inactive) in each case.

For the molecule `CN1CC[C@@H](c2c(O)cc(O)c3c(=O)cc(-c4ccccc4Cl)oc23)[C@@H]1CO`, the Kd in assay [1] is 0.892 µM (active); in assay [2] it was > 30 µM (inactive); in assay [3], 2.54 µM (active); at ADP/ATP translocase 3 it was > 30 µM (inactive).

On to `CN1N=C(N)c2cn([C@@H]3O[C@H](COP(=O)(O)O)[C@@H](O)[C@H]3O)c3ncnc1c23` [TRICIRIBINE PHOSPHATE], for which the Kd (in assay [1]; in assay [2]; in assay [3]; at ADP/ATP translocase 3) was > 30 µM (inactive) in each case.

Consider `O=C(c1ccc(F)c(F)c1Nc1ccc(I)cc1F)N1CC(O)([C@@H]2CCCCN2)C1` [COBIMETINIB], for which the Kd (in assay [1]; in assay [2]; in assay [3]; at ADP/ATP translocase 3) was > 30 µM (inactive) throughout.

Turning to `Cc1cc(-c2cc(O)ccc2Cl)cc2nnc(Nc3ccc(OCCN4CCCC4)cc3)nc12`, the Kd in assay [1] is > 30 µM (inactive); in assay [2] it was > 30 µM (inactive); in assay [3], 0.003 µM; on ADP/ATP translocase 3, > 30 µM (inactive).
